For the series the following is noted: 101.33 kPa, Liquid, Vibrating tube method.

Numbers after ± are expanded uncertainties.

What is called mass density is mass per unit of volume.

For `CCCCCCCC` [octane], for the setting “298.15 K”, the mass density turned out to be 698.49 ± 0.23 kg/m3. With `Cc1ccc(O)cc1` [4-methylphenol], under “313.15 K”, the mass density is given as 1018.8 ± 0.08 kg/m3. Same read-out and setting: the figure for `Oc1ccccc1` [phenol] is 1058.3 ± 0.11 kg/m3. For `Cc1ccccc1O` [2-methylphenol], the mass density (308.15 K) is given as 1032.73 ± 0.28 kg/m3. Regarding `Cc1cccc(O)c1` [3-methylphenol], the mass density (293.15 K) turned out to be 1033.85 ± 0.09 kg/m3. On to `CCCCCCC` [heptane], for which, under “298.15 K”, the mass density is given as 679.43 ± 0.23 kg/m3.

The values are drawn from the NIST ThermoML archive (doi:10.1021/je1007923).
